Experimental data reported in patent US20200407717A1, “METHODS OF MODULATING ANTISENSE ACTIVITY” (Ionis Pharmaceuticals, Inc., priority 2018, published 2020).
In the oligonucleotide strings, read from the 5' end, every base follows the letter of its sugar. An asterisk marks phosphorothioate; unmarked linkages are phosphodiester. Other units and linkages are bracketed, terminal groups are in braces. A string of capitals states the bases alone. e = 2'-O-(2-methoxyethyl) (MOE); {AF594} = Alexa Fluor 594 dye; k = constrained ethyl (cEt); {FITC} = fluorescein label; [5mC] = 5-methylcytosine; d = 2'-deoxy (DNA)

Columns and labels:
EGF-EGFR signaling = assay: EGFR signaling western blot (p-EGFR, p-ERK), A431 cells; assay type: cell-based; details: for EGFR signaling: 2 μM for 16 hours
Method: In order to test the effects of a PS-ASO on EGFR signaling, A431 cells were incubated with compound no. 116847 or no PS-ASO compound for 16 hours. All cells were then treated with EGF prior to being subjected to the pulse-chase protocol described above. Cell lysates were run on a SDS-PAGE gel and analyzed by sequential western blot for phosphorylated EGFR (P-EGFR), total EGFR (T-EGFR), phosphorylated ERK (P-ERK), and total ERK (T-ERK) using the antibodies described above for EGFR, 4370 for P-ERK (Cell Signaling Technology), and 4695 for T-ERK (Cell Signaling Technology).
110080, 25690, 25699, 395251, or 395254 at 2 μM for 16 hours prior to carrying out the pulse-chase experiment described above.

Purified recombinant EGF = target: T1, Purified recombinant EGF (Homo sapiens, UniProt P01133); assay: Membrane binding assay, EGF; details: EGF 3 nM to 3 μM
T1 construct: purchased ThermoFisher PHG0311L
Method: (§1) A membrane binding assay was performed to test the binding affinities of modified oligonucleotides to EGF and EGFR. Purified recombinant EGF (PHG0311L, ThermoFisher) or EGFR protein (PV3872, ThermoFisher) were incubated with FITC-labeled phosphorothioate oligonucleotide, compound no. 256903 or FITC-labeled phosphate oligonucleotide, PO-ASO, in binding buffer (20 mM Tris-HCl, pH 7.5, 150 mM NaCl, 1 mM DTT, 10% glycerol) for 1 hr at 37° C. Each reaction contained purified EGF at 3 nM to 3 μM or recombinant EGFR at 5 nM to 150 nM. Samples were loaded onto a hyband ECL nitrocellulose membrane (GE Healthcare) and soaked in wash buffer (20 mM Tris-HcCl, pH 7.5, 250 mM NaCl). Protein-bound ASOs were transferred to the membrane by applying a vaccum in a 96-well Bio-Rad Bio-Dot apparatus. After washing, membranes were air-dried and scanned using a phoshoimager (GE Healthcare). Kds were calculated for compound no. 256903 using Prism. The results below represent an average of three replicate experiments. […] In contrast, compound no. 256903 bound to both EGF and EGFR, with a higher affinity for EGFR than for EGF.

EGFR [1] = target: T2, EGFR (Homo sapiens, UniProt P00533); assay: Membrane binding assay, EGFR; set-up: purchased ThermoFisher PV3872; details: EGFR 5 nM to 150 nM
Method: as §1

EGFR [2] = target: T2, EGFR; assay: Direct NanoBRET binding assay; set-up: made in house; host or cells: HEK293 cells; details: Direct BRET, AF594-labeled oligonucleotide 0.1-10,000 nM
Method: (§2) NanoBRET (bioluminescence resonance energy transfer) binding assays were performed as described in Vickers and Crooke. PLOS One, 11(8), (2016). An EGFR NLuc construct was prepared by first amplifying human EGFR from the full length cDNA clone (Origene RC217223) with forward PCR primer 5′-[…]-3′ (SEQ ID NO: 1) and reverse PCR primer 5′-[…] (SEQ ID NO: 2). The amplified product was ligated into the NheI and XhoI sites of the NanoLuc expression vector pFC32K Nluc CMV-Neo (Promega). Protein was expressed in HEK293 cells and isolated using Protein G magnetic beads. For competitive BRET, the Alexafluor594-labeled modified oligonucleotide 766636 was diluted into water in opaque white 96-well plates at 10 nM and competed with 0.1-10,000 nM of unlabeled modified oligonucleotide. […] of 2× binding buffer containing […] (relative luminescence units) beads/well was added and plates were shaken for 10 minutes at room temperature. Nanoluciferase activity and BRET were measured in a Glowmax Discover plate reader and EC50 values, shown in the tables below, were calculated using GraphPad Prism. For direct BRET, Alexafluor594 modified nucleotides were diluted at 0.1-10,000 nM and experiments were performed as described above.

EGFR [3] = assay: Pulse-chase EGFR synthesis and degradation, A431 cells; assay type: cell-based
Method: In order to test the effects of a PS-ASO on EGFR synthesis and degradation, A431 cells were incubated with either compound no. 116847 or no PS-ASO compound for 16 hours. A pulse-chase protocol was then performed in which the cells were incubated for 20 minutes in cysteine and methionine free media followed by incubation with [^35S]-Met and [^35S]-Cys in order to analyze newly synthesized protein. Cell samples were collected in RIPA buffer after 50 minutes (FIG. 6A) or at the times indicated in the tables below, and cell lysates were immunoprecipitated with EGFR antibody or s100a10 antibody (610071, BD Bioscience). The resulting, labeled immunocomplexes were resolved by SDS-PAGE and visualized by autoradiography using phosphoimager. FIG. 6A and Table 13 show the levels of nascent EGFR protein and nascent s100a10, a control protein. […] 116847 relative to cells that were not incubated with an ASO.

EGFR [4] = target: T2, EGFR; assay: Competitive NanoBRET binding assay; set-up: made in house; host or cells: HEK293 cells; details: Competitive BRET vs 10 nM AF594-labeled 766636
Method: as §2

EGFR [5] = target: T2, EGFR; assay: Competitive BRET in absence or presence of exogenous EGF; assay type: binding; set-up: made in house; host or cells: HEK293 cells
Method: as §2
The binding affinities for EGFR of PS-ASOs with various sugar modifications were measured with competitive BRET, as described in Example 1. 10 nM compound no. […]

EGFR [6] = target: T2, EGFR; assay: Pull-down assay in the presence of EGF; assay type: binding; set-up: endogenous in cells; host or cells: A431 cells
Method: A431 cells were treated with 100 ng/mL, 200 ng/mL, or 400 ng/mL EGF and then lysed. The cell lysates were mixed with beads bound to compound no. 451104, as prepared as in Example 1. Proteins were eluted with compound no. 116847 and run on a SDS-PAGE followed by western blot, as in Example 1. The same membrane was sequentially blotted for total EGFR (T-EGFR), phosphorylated EGFR (P-EGFR, ab205827, Abcam), nucleolin (ab22758, Abcam), and TCP1β. […] 451104 to EGFR.
In a similar experiment in which EGF was added after cell lysis, A431 cells were lysed and mixed with beads bound to compound no. 451104. Varying concentrations of EGF were added during the elution step with compound no. 116847.

T1 sequence (P01133 971-1023 limits assumed): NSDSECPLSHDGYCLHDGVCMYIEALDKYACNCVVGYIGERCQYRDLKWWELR

^mCesGesTes^mCesGesTds^mCdsGdsTds^mCdsAdsTds^mCds^mCdsTds^mCesGesTes^mCes^mCe (antisense e[5mC]*eG*eT*e[5mC]*eG*dT*d[5mC]*dG*dT*d[5mC]*dA*dT*d[5mC]*d[5mC]*dT*e[5mC]*eG*eT*e[5mC]*e[5mC]) [compound 110080]
EGFR signaling (EGF-EGFR signaling): not be impacted

FITC-^mCeoTeoGeo^mCeoTeoAdoGdo^mCds^mCdoTdo^mCdoTdoGdoGdoAdoTeoTeoTeoGeoAe (antisense {FITC}-e[5mC]eTeGe[5mC]eTdAdGd[5mC]*d[5mC]dTd[5mC]dTdGdGdAeTeTeTeGeA) [PO-ASO, FITC-labeled phosphate oligonucleotide]
interaction with EGF (Purified recombinant EGF): did not appreciably interact | interaction with EGFR (EGFR [1]): did not appreciably interact

^mCes^mCesAesGesGes^mCdsTdsGdsGdsTdsTdsAdsTdsGdsAds^mCesTes^mCesAesGe (antisense e[5mC]*e[5mC]*eA*eG*eG*d[5mC]*dT*dG*dG*dT*dT*dA*dT*dG*dA*e[5mC]*eT*e[5mC]*eA*eG) [compound 395251]
EGFR signaling (EGF-EGFR signaling): not be impacted

AF594-^mCes^mCesTesTes^mCes^mCds^mCdsTdsGdsAdsAdsGdsGdsTdsTds^mCes^mCesTes^mCes^mCe (antisense {AF594}-e[5mC]*e[5mC]*eT*eT*e[5mC]*d[5mC]*d[5mC]*dT*dG*dA*dA*dG*dG*dT*dT*e[5mC]*e[5mC]*eT*e[5mC]*e[5mC]) [compound 1024789]
EC50 (EGFR [2]): 202 nM

AF594-GksGksTks^mCdsGdsAds^mCds^mCdsGdsAdsAdsGdsTds^mCksAksTk (antisense GGTCGACCGAAGTCAT; 5'-AF594 label, cEt/MOE, 5-methylC, phosphorothioate, chemistry not fully specified) [compound 1024788]
EC50 (EGFR [2]): 525 nM

AF594-Gks^mCksAksTdsGdsTdsTds^mCdsTds^mCddsAds^mCdsAdsTksTksAk (antisense {AF594}-kG*k[5mC]*kA*dT*dG*dT*dT*d[5mC]*dT*d[5mC]*dA*d[5mC]*dA*kT*kT*kA) [compound 1055615]
EC50 (EGFR [2]): 746 nM

AF594-GksGks^mCdsTdsAds^mCdsTdsAds^mCdsGds^mCds^mCdsGdsTks^mCksAk (antisense {AF594}-kG*kG*d[5mC]*dT*dA*d[5mC]*dT*dA*d[5mC]*dG*d[5mC]*d[5mC]*dG*kT*k[5mC]*kA) [compound 936533]
EC50 (EGFR [2]): 551 nM

AesGesTes^mCesTesAdsGdsGdsGdsTds^mCdsAds^mCdsAdsAdsTes^mCesTesGesGe (antisense eA*eG*eT*e[5mC]*eT*dA*dG*dG*dG*dT*d[5mC]*dA*d[5mC]*dA*dA*eT*e[5mC]*eT*eG*eG) [compound 25699]
EGFR signaling (EGF-EGFR signaling): not be impacted

CTGCTAGCCTCTGGATTTGA (sugars from the 5' end e5 d10 e5, all phosphorothioate, methylation of C not given here) [compound 116847, 5-10-5 2′-MOE gapmer, phosphorothioate]
EGFR synthesis and degradation (EGFR [3]; 16 hours incubation, relative to cells not incubated with an ASO): unchanged | Relative Abundance of EGFR (%) (EGFR [3]; Time 0 hr): 103% | Relative Abundance of EGFR (%) (EGFR [3]; Time 4 hr): 91% | Relative Abundance of EGFR (%) (EGFR [3]; Time 16 hr): 69% | Relative Abundance of EGFR (%) (EGFR [3]; Time 24 hr): 54% | EGF-EGFR signaling (EGF-EGFR signaling; 16 hours incubation, then EGF): not affected | p-EGFR (%) (EGF-EGFR signaling; Time 0.5 hr): 89% | p-ERK (%) (EGF-EGFR signaling; Time 0.5 hr): 102% | p-EGFR (%) (EGF-EGFR signaling; Time 1 hr): 76% | p-ERK (%) (EGF-EGFR signaling; Time 1 hr): 94% | p-EGFR (%) (EGF-EGFR signaling; Time 2 hr): 85% | p-ERK (%) (EGF-EGFR signaling; Time 2 hr): 85% | p-EGFR (%) (EGF-EGFR signaling; Time 4 hr): 55% | p-ERK (%) (EGF-EGFR signaling; Time 4 hr): 87% | EC50 (EGFR [4]; Table 5): 181 nM | EC50 (EGFR [4]; Table 6): 1660 nM | Bret Ratio (% Max) (EGFR [5]; 0.01 nM, EGF added 0): 15.0 % Max | Bret Ratio (% Max) (EGFR [5]; 0.01 nM, EGF added 100 ng/mL): 13.3 % Max | Bret Ratio (% Max) (EGFR [5]; 0.03 nM, EGF added 0): 15.4 % Max | Bret Ratio (% Max) (EGFR [5]; 0.03 nM, EGF added 100 ng/mL): 12.4 % Max | Bret Ratio (% Max) (EGFR [5]; 0.1 nM, EGF added 0): 16.2 % Max | Bret Ratio (% Max) (EGFR [5]; 0.1 nM, EGF added 100 ng/mL): 13.2 % Max | Bret Ratio (% Max) (EGFR [5]; 0.30 nM, EGF added 0): 19.6 % Max | Bret Ratio (% Max) (EGFR [5]; 0.30 nM, EGF added 100 ng/mL): 15.1 % Max | Bret Ratio (% Max) (EGFR [5]; 1.0 nM, EGF added 0): 26.1 % Max | Bret Ratio (% Max) (EGFR [5]; 1.0 nM, EGF added 100 ng/mL): 18.0 % Max | Bret Ratio (% Max) (EGFR [5]; 3.0 nM, EGF added 0): 32.6 % Max | Bret Ratio (% Max) (EGFR [5]; 3.0 nM, EGF added 100 ng/mL): 24.2 % Max | Bret Ratio (% Max) (EGFR [5]; 10.0 nM, EGF added 0): 41.8 % Max | Bret Ratio (% Max) (EGFR [5]; 10.0 nM, EGF added 100 ng/mL): 30.7 % Max | Bret Ratio (% Max) (EGFR [5]; 30.0 nM, EGF added 0): 52.8 % Max | Bret Ratio (% Max) (EGFR [5]; 30.0 nM, EGF added 100 ng/mL): 39.7 % Max | Bret Ratio (% Max) (EGFR [5]; 100 nM, EGF added 0): 64.1 % Max | Bret Ratio (% Max) (EGFR [5]; 100 nM, EGF added 100 ng/mL): 54.7 % Max | Bret Ratio (% Max) (EGFR [5]; 300 nM, EGF added 0): 70.8 % Max | Bret Ratio (% Max) (EGFR [5]; 300 nM, EGF added 100 ng/mL): 63.8 % Max | Bret Ratio (% Max) (EGFR [5]; 1000 nM, EGF added 0): 82.9 % Max | Bret Ratio (% Max) (EGFR [5]; 1000 nM, EGF added 100 ng/mL): 77.4 % Max | Bret Ratio (% Max) (EGFR [5]; 3000 nM, EGF added 0): 99.5 % Max | Bret Ratio (% Max) (EGFR [5]; 3000 nM, EGF added 100 ng/mL): 94.2 % Max

Biotin-TEG-^mCesTesGes^mCesTesAdsGds^mCds^mCdsTds^mCds^ioUdsGdsGdsAdsTesTGesTesGesAe [compound 451104]
competition by exogenous EGF for binding to EGFR (EGFR [6]; A431 cells treated with 100, 200 or 400 ng/mL EGF, then lysed): did not compete | recovery of EGFR, nucleolin, or TCP1β from the beads on direct addition of EGF (EGFR [6]; EGF added to cell lysates during elution): did not significantly alter
